# Experimental data: paper PMC4335062, “Data-Driven Prediction and Design of bZIP Coiled-Coil Interactions” (PLoS Computational Biology, 2015)
# Like-named read-outs stand apart in the source and are kept apart here. Where no end group is shown, it is not given here.
# Key:
# Experiment in all cases: Direct-binding FRET assay
# ATF2 = target: T1, ATF2 (Homo sapiens, UniProt P15336); conditions: Kd, N-terminal rhodamine design, mean or single
# T1 construct: made in house
# T1 sequence (P15336 352-415 limits assumed): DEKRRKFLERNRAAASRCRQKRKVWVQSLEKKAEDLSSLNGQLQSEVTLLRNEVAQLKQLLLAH
# Description: (§1) The direct binding assay was performed manually in 384-well plates and is similar to a previously described assay. Wells were filled with 20 μL of 1 mM TCEP-HCl. A 4 μM stock of acceptor protein was made fresh in 1 mM TCEP-HCl, and 20 μL was titrated in 2-fold dilutions over the wells. […] The direct-binding FRET data were fit as previously described. Briefly, the Kd of the designed peptide homodimer was experimentally determined and used with previously determined target homodimer Kd values to determine the heterodimer Kd. The homodimer Kd values used for the human bZIPs were from; experiments done by […] et al. used the same protein constructs for the human bZIP proteins, the same buffer conditions, and the same assay. The fitting used a system of ordinary differential equations to describe the concentrations of homo and heterodimers formed by the donor (D) and acceptor (A) as a function of the heterodimer Kd. MATLAB was used to simulate the binding experiment for different Kd values, and the value that gave the best agreement between simulation and experiment was assigned. A minimum 15% change in the donor fluorescence upon titrating the acceptor peptide from 0 to 1000 nM was required for a fit to be attempted. If this minimum was not met, the interaction was classified as “NS” for no signal change. […] These interactions were marked “AS” to indicate anomalous signal. We attributed this to interactions between the peptides, the dyes and the walls of the assay plates at low concentrations. These curves could not be fit, given their unusual shapes at low concentrations of acceptor. For such curves, we removed the first five points and re-fit the data. […] One example of this is increasing concentrations of acceptor causing an increase in donor fluorescence.
# ATF5 = target: T2, ATF5 (Homo sapiens, UniProt Q9Y2D1); conditions: Kd
# T2 construct: made in house
# T2 sequence (Q9Y2D1 208-271 limits assumed): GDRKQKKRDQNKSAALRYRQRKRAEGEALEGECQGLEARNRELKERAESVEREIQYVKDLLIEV
# Description: as §1
# BATF2 = target: T3, BATF2 (Homo sapiens, UniProt Q8N1L9); conditions: Kd
# T3 construct: made in house
# T3 sequence (Q8N1L9 17-80 limits assumed): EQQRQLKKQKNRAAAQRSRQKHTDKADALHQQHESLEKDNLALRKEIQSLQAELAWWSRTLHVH
# Description: as §1
# NFIL3 = target: T4, NFIL3 (Homo sapiens, UniProt Q16649)
# T4 construct: made in house
# T4 sequence (Q16649 73-136 limits assumed): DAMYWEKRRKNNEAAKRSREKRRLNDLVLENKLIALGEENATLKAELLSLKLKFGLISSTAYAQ
# Description: as §1
# DBP = target: T5, DBP (Homo sapiens, UniProt Q10586); conditions: Kd
# T5 construct: made in house
# T5 sequence (Q10586 255-318 limits assumed): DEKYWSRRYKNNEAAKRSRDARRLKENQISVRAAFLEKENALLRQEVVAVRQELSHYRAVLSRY
# Description: as §1
# CREBZF = target: T6, CREBZF (Homo sapiens, UniProt Q9NS37)
# T6 construct: made in house
# T6 sequence (Q9NS37 204-267 limits assumed): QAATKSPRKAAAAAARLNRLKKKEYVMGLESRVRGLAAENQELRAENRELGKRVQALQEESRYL
# Description: as §1
# NFE2L2 = target: T7, NFE2L2 (Homo sapiens, UniProt Q16236); conditions: Kd
# T7 construct: made in house
# T7 sequence (Q16236 497-560 limits assumed): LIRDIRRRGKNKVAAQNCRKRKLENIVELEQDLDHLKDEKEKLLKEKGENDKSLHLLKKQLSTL
# Description: as §1
# CREB3L3 = target: T8, CREB3L3 (Homo sapiens, UniProt Q68CJ9)
# T8 construct: made in house
# T8 sequence (Q68CJ9 243-306 limits assumed): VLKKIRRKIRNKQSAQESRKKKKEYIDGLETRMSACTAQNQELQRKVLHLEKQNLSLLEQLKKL
# Description: as §1
# HLF = target: T9, HLF (Homo sapiens, UniProt Q16534)
# T9 construct: made in house
# T9 sequence (Q16534 225-288 limits assumed): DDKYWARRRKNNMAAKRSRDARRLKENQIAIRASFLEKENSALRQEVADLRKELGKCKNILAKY
# Description: as §1
# CREB3 = target: T10, CREB3 (Homo sapiens, UniProt O43889)
# T10 construct: made in house
# T10 sequence (O43889 150-213 limits assumed): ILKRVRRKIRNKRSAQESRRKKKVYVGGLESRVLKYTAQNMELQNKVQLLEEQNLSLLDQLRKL
# Description: as §1
# [1] = 4°C, C-terminal fluorescein design as donor, TAMRA target titrated
# [2] = 4°C, C-terminal rhodamine design, mean or single
# [3] = 4°C, N-terminal rhodamine design, mean or single
# [4] = 23°C, C-terminal fluorescein design as donor, TAMRA target titrated
# [5] = 23°C, C-terminal rhodamine design, mean or single
# [6] = 23°C, N-terminal rhodamine design, mean or single
# [7] = 37°C, C-terminal fluorescein design as donor, TAMRA target titrated
# [8] = 37°C, C-terminal rhodamine design, mean or single
# [9] = 37°C, N-terminal rhodamine design, mean or single
sequence,measurement,setting,value
SIAATLEKEEANLEKMNKKLAAEIESLLKEKDKLESVLNYHE [JUN-d1],Kd,ATF2; 4°C,200 to 1000 nM
same,Kd,ATF2; 23°C,> 1000 nM
same,Kd,ATF2; 37°C,> 1000 nM
same,Kd,ATF5; [1],> 1000 nM
same,Kd,ATF5; [2],> 5000 nM
same,Kd,ATF5; [3],> 1000 nM
same,Kd,ATF5; [4],> 1000 nM
same,Kd,ATF5; [5],> 1000 nM
same,Kd,ATF5; [6],> 1000 nM
same,Kd,ATF5; [7],> 1000 nM
same,Kd,ATF5; [8],> 1000 nM
same,Kd,ATF5; [9],> 1000 nM
same,Kd,BATF2; [1],> 1000 nM
same,Kd,BATF2; [2],> 5000 nM
same,Kd,BATF2; [3],> 1000 nM
same,Kd,BATF2; [4],> 1000 nM
same,Kd,BATF2; [5],> 1000 nM
same,Kd,BATF2; [6],> 1000 nM
same,Kd,BATF2; [7],> 1000 nM
same,Kd,BATF2; [8],> 1000 nM
same,Kd,BATF2; [9],> 1000 nM
same,Kd,NFIL3,> 1000 nM
same,Kd,NFIL3; [1],> 1000 nM
same,Kd,NFIL3; [2],> 1000 nM
same,Kd,NFIL3; [3],> 1000 nM
same,Kd,NFIL3; [4],> 1000 nM
same,Kd,NFIL3; [5],> 1000 nM
same,Kd,NFIL3; [6],> 1000 nM
same,Kd,NFIL3; [7],> 1000 nM
same,Kd,NFIL3; [9],> 1000 nM
same,Kd,DBP; [1],> 1000 nM
same,Kd,DBP; [2],> 5000 nM
same,Kd,DBP; [3],> 1000 nM
same,Kd,DBP; [4],> 1000 nM
same,Kd,DBP; [5],> 5000 nM
same,Kd,DBP; [6],> 1000 nM
same,Kd,DBP; [7],> 1000 nM
same,Kd,DBP; [8],> 1000 nM
same,Kd,DBP; [9],> 1000 nM
same,Kd,CREBZF,> 1000 nM
same,Kd,CREBZF; [1],> 1000 nM
same,Kd,CREBZF; [2],> 1000 nM
same,Kd,CREBZF; [3],> 1000 nM
same,Kd,CREBZF; [4],> 1000 nM
same,Kd,CREBZF; [5],> 1000 nM
same,Kd,CREBZF; [6],> 1000 nM
same,Kd,CREBZF; [7],> 1000 nM
same,Kd,CREBZF; [9],> 1000 nM
same,Kd,NFE2L2; [1],> 1000 nM
same,Kd,NFE2L2; [2],> 1000 nM
same,Kd,NFE2L2; [3],> 1000 nM
same,Kd,NFE2L2; [4],> 1000 nM
same,Kd,NFE2L2; [5],> 1000 nM
same,Kd,NFE2L2; [6],> 1000 nM
same,Kd,NFE2L2; [7],> 1000 nM
same,Kd,NFE2L2; [8],> 5000 nM
same,Kd,NFE2L2; [9],> 1000 nM
same,Kd,CREB3L3,> 1000 nM
same,Kd,CREB3L3; [1],> 1000 nM
same,Kd,CREB3L3; [2],> 1000 nM
same,Kd,CREB3L3; [3],> 1000 nM
same,Kd,CREB3L3; [4],> 1000 nM
same,Kd,CREB3L3; [5],> 1000 nM
same,Kd,CREB3L3; [6],> 1000 nM
same,Kd,CREB3L3; [7],> 1000 nM
same,Kd,CREB3L3; [9],> 1000 nM
same,Kd,HLF,> 1000 nM
same,Kd,HLF; [1],> 1000 nM
same,Kd,HLF; [2],> 1000 nM
same,Kd,HLF; [3],> 1000 nM
same,Kd,HLF; [4],> 1000 nM
same,Kd,HLF; [5],> 1000 nM
same,Kd,HLF; [6],> 1000 nM
same,Kd,HLF; [7],> 1000 nM
same,Kd,HLF; [9],> 1000 nM
same,Kd,CREB3,> 1000 nM
same,Kd,CREB3; [2],> 1000 nM
same,Kd,CREB3; [3],> 1000 nM
same,Kd,CREB3; [5],> 1000 nM
same,Kd,CREB3; [6],> 1000 nM
same,Kd,CREB3; [9],> 1000 nM
